Values quoted from earlier work as cited in patent publication US20160032347A1, “NOVEL METHOD AND DEVICE FOR WHOLE-CELL BACTERIAL BIO-CAPACITOR CHIP FOR DETECTING CELLULAR STRESS INDUCED BY TOXIC CHEMICALS” (Sabanci Universitesi, priority 2011, published 2016).

Tested on: E. coli
Settings: previous studies; ~6.5%

[Cl-].[Na+] [NaCl, sodium chloride]
salt tolerance level reported for E. coli: up to 1.1 M
